From US20210284617A1, “Synthesis of (S)-2-Amino-4-Methyl-((R)-2-Methyloxirane-2-Yl)-Pentan-1-One and Pharmaceutically Acceptable Salts Thereof” (Amgen Inc., priority 2016, published 2021)
In brackets after ≈: the same amount, converted by molar mass.

How the values were obtained:
[1] = Solubility of compound in organic solvents (crystallization development); assay type: physicochemical; settings: for solubility in organic solvents (in words): isolation/crystallization context
Description: Importantly, the intermediate synthesis of compound 3a allowed for the development of a crystallization process capable of purging upstream impurities and eliminating the requirement for column chromatography at step 1 or 2. […] Alternatively, a ternary system of three (3) solvents, such as acetonitrile/water/acetic acid will also work to isolate compound 3a. Further, the epoxidation step 3 in scheme 3 using the Mn-y76t catalyst of the present invention followed by crystallization with IPA/water worked well to not only to purge the diasteromer impurity but also to purge upstream process impurities.

[2] = Storage stability of the step 2 product, concentrated or in ACN/MTBE solution; assay type: physicochemical; settings: for time stable in solution: 2-10 V of ACN or MTBE
Description: Appropriate quenching of the Grignard process is important to ensure product quality and to eliminate racemization. A Grignard adduct impurity resulting from double-addition of the Grignard reagent was detected by LCMS at ˜2 LCAP during inverse addition of the reaction mixture to a mixture of MTBE (5 V) and 25% citric acid aqueous solution (10 V). An increase in the level of the double-addition by-product (up to 11 LCAP) was observed when quenching the reaction mixture into citric acid solution (in the absence of MTBE) with an associated decrease in product yield by >35%. The excess Grignard could react with product of step 2 that was hydrolyzed after work-up leading to the formation of the impurity. Of note, the impurities of double-addition, morpholine-adduct and dimers could not be detected by HPLC due to their relatively low response factors, but could be detected by LCMS and TLC (EtOAc/heptane 1:4, Nihydrin). Thus, it is important to carefully control the amount of Grignard reagents used and to carefully quench the reaction upon completion. Racemization of step 2 product was not observed during the course of optimization of the Grignard process or during the inverse quenching step. The concentrated product with BHT was stable at ambient temperature for one month; BHT in this sample originated from the solvent (250 ppm in stabilized THF) used in the Grignard process. The solution containing the product of step 2 in 2-10 V of ACN or MTBE was stable at room temperature or 5° C. for at least 4 days or 18 hours at 35° C., which was required to optimize the solvent switch to ACN for the step 3 epoxidation.

SMILES	solubility in organic solvents (in words) [1]	solubility ([1]; organic solvent or mixture, n-hexane at −20° C.)	time stable in solution ([2]; 35° C.)	time stable in solution ([2]; room temperature or 5° C.)	time stable as concentrated product ([2]; concentrated product with BHT, ambient temperature)
CC(C)C[C@@H](NC(=O)OC(C)(C)C)C(=O)[C@@]1(C)CO1 [compound 3a, tert-butyl ((R)-4-methyl-1-((R)-2-methyloxiran-2-yl)-1-oxopentan-2-yl)carbamate]	improved solubility profile				
CC(C)C[C@H](NC(=O)OC(C)(C)C)C(=O)[C@@]1(C)CO1 [compound 4a, tert-butyl ((S)-4-methyl-1-((R)-2-methyloxiran-2-yl)-1-oxopentan-2-yl)carbamate]	high solubility in most all organic solvents	~34 mg/mL (≈ 125 mM)			
C=C(C)C(=O)[C@@H](CC(C)C)NC(=O)OC(C)(C)C [compound 2a, (R)-tert-butyl (2,6-dimethyl-3-oxohept-1-en-4-yl)carbamate]			18 h	at least 4 days	one month
